Calls of active or inactive are those of the source. No cut-off for these calls is given here.
Columns and labels:
[1] = tested on: PANC-1; assay: Preferential cytotoxicity against human PANC-1 cells in nutrient-deprived medium measured after 24 hrs by WST-8 cell counting analysis; format: functional
[2] = tested on: MIA PaCa-2; assay: Antitumor activity against human MIA PaCa-2 cells xenografted in athymic BALB/c-nu mouse assessed as fold change in tyrosine level in tumor at 10 mg/kg/day, ip administered five times per week for 4 weeks by LC-MS analysis; format: functional
[3] = tested on: PANC-1; assay: Preferential cytotoxicity against human PANC-1 cells in nutrient-deprived medium assessed as alteration in cell morphology by measuring cell rounding at 5 uM measured after 24 hrs by acridine orange and ethidium bromide dual fluorescent staining based imaging analysis; format: functional
[4] = tested on: MIA PaCa-2; assay: Inhibition of Akt/mTOR signaling pathway in human MIA PaCa-2 cells in nutrient-deprived medium assessed as reduction in AKT phosphorylation at S473 residue measured after 6 hrs by Western blot analysis; format: cell-based; conditions: dose 5-20 µM
[5] = tested on: MIA PaCa-2; assay: Inhibition of autophagy in human MIA PaCa-2 cells in nutrient-deprived medium assessed as downregulation of LC3-I protein expression measured after 6 hrs by Western blot analysis; format: functional, cell-based; conditions: dose 5-20 µM
[6] = tested on: PANC-1; assay: Antimetastatic activity in human PANC-1 cells in nutrient-rich medium assessed as open wound area at 20 uM measured every 15 mins for 24 hrs by live cell imaging analysis (reference value: 16%); format: functional
[7] = tested on: MIA PaCa-2; assay: Antimetastatic activity in human MIA PaCa-2 cells in DMEM media assessed as inhibition of colony formation at 10 uM incubated for 24 hrs followed by replacement with fresh medium and measured after 10 days by crystal violet staining-based assay relative to control; format: functional
[8] = tested on: MIA PaCa-2; assay: Antitumor activity against human MIA PaCa-2 cells xenografted in athymic BALB/c-nu mouse assessed as tumor growth inhibition at 2 mg/kg/day, ip administered five times per week for 4 weeks relative to control; format: functional; conditions: MIA PaCa-2, 672 h, read-out: TGI
[9] = tested on: MIA PaCa-2; assay: Antitumor activity against human MIA PaCa-2 cells xenografted in athymic BALB/c-nu mouse assessed as tumor growth inhibition at 10 mg/kg/day, ip administered five times per week for 4 weeks relative to control; format: functional; conditions: MIA PaCa-2, 672 h, read-out: TGI
[10] = tested on: MIA PaCa-2; assay: Antitumor activity against human MIA PaCa-2 cells xenografted in athymic BALB/c-nu mouse assessed as reduction in p-Akt level in tumor at 2 to 10 mg/kg/day, ip administered five times per week for 4 weeks by immunohistochemistry analysis; format: functional, organism-based; conditions: dose 2-10 mg/kg/day
[11] = tested on: MIA PaCa-2; assay: Antitumor activity against human MIA PaCa-2 cells xenografted in athymic BALB/c-nu mouse assessed as fold change in sphinganine level in tumor at 10 mg/kg/day, ip administered five times per week for 4 weeks by LC-MS analysis; format: functional
[12] = tested on: MIA PaCa-2; assay: Antitumor activity against human MIA PaCa-2 cells xenografted in athymic BALB/c-nu mouse assessed as fold change in N-acetyl-L-glutamicacid level in tumor at 10 mg/kg/day, ip administered five times per week for 4 weeks by LC-MS analysis; format: functional
[13] = tested on: MIA PaCa-2; assay: Antitumor activity against human MIA PaCa-2 cells xenografted in athymic BALB/c-nu mouse assessed as fold change in 2'-deoxycytidine level in tumor at 10 mg/kg/day, ip administered five times per week for 4 weeks by LC-MS analysis; format: functional
[14] = tested on: MIA PaCa-2; assay: Antitumor activity against human MIA PaCa-2 cells xenografted in athymic BALB/c-nu mouse assessed as fold change in glutamic acid level in tumor at 10 mg/kg/day, ip administered five times per week for 4 weeks by LC-MS analysis; format: functional
[15] = tested on: PANC-1; assay: Preferential cytotoxicity against human PANC-1 cells in nutrient-deprived medium assessed as alteration in cell morphology by measuring leakage of cell components at 5 uM measured after 24 hrs by acridine orange and ethidium bromide dual fluorescent staining based imaging analysis; format: functional
[16] = tested on: PANC-1; assay: Inhibition of Akt/mTOR signaling pathway in human PANC-1 cells in DMEM media assessed as reduction in AKT phosphorylation at S473 residue at 5 to 20 uM measured after 6 hrs by Western blot analysis; format: cell-based; conditions: dose 5-20 µM
[17] = tested on: MIA PaCa-2; assay: Inhibition of Akt/mTOR signaling pathway in human MIA PaCa-2 cells in DMEM media assessed as reduction in mTOR phosphorylation at S2481 residue at 5 to 20 uM measured after 6 hrs by Western blot analysis; format: cell-based; conditions: dose 5-20 µM
[18] = tested on: MIA PaCa-2; assay: Antitumor activity against human MIA PaCa-2 cells xenografted in athymic BALB/c-nu mouse assessed as fold change in cytosine level in tumor at 10 mg/kg/day, ip administered five times per week for 4 weeks by LC-MS analysis; format: functional
[19] = tested on: MIA PaCa-2; assay: Antitumor activity against human MIA PaCa-2 cells xenografted in athymic BALB/c-nu mouse assessed as fold change in 3-sulfolactic acid level in tumor at 2 mg/kg/day, ip administered five times per week for 4 weeks by LC-MS analysis; format: functional
[20] = tested on: MIA PaCa-2; assay: Antitumor activity against human MIA PaCa-2 cells xenografted in athymic BALB/c-nu mouse assessed as fold change in cytidine level in tumor at 2 mg/kg/day, ip administered five times per week for 4 weeks by LC-MS analysis; format: functional
[21] = tested on: MIA PaCa-2; assay: Antitumor activity against human MIA PaCa-2 cells xenografted in athymic BALB/c-nu mouse assessed as fold change in cytidine 5'-monophosphate-Neu5Ac level in tumor at 2 mg/kg/day, ip administered five times per week for 4 weeks by LC-MS analysis; format: functional
[22] = tested on: MIA PaCa-2; assay: Antitumor activity against human MIA PaCa-2 cells xenografted in athymic BALB/c-nu mouse assessed as fold change in D-glucuronic acid level in tumor at 2 mg/kg/day, ip administered five times per week for 4 weeks by LC-MS analysis; format: functional
[23] = tested on: MIA PaCa-2; assay: Antitumor activity against human MIA PaCa-2 cells xenografted in athymic BALB/c-nu mouse assessed as fold change in glutamic acid level in tumor at 2 mg/kg/day, ip administered five times per week for 4 weeks by LC-MS analysis; format: functional
[24] = tested on: MIA PaCa-2; assay: Antitumor activity against human MIA PaCa-2 cells xenografted in athymic BALB/c-nu mouse assessed as fold change in leucine level in tumor at 2 mg/kg/day, ip administered five times per week for 4 weeks by LC-MS analysis; format: functional
[25] = tested on: MIA PaCa-2; assay: Antitumor activity against human MIA PaCa-2 cells xenografted in athymic BALB/c-nu mouse assessed as fold change in serine level in tumor at 2 mg/kg/day, ip administered five times per week for 4 weeks by LC-MS analysis; format: functional
[26] = tested on: MIA PaCa-2; assay: Antitumor activity against human MIA PaCa-2 cells xenografted in athymic BALB/c-nu mouse assessed as fold change in tyrosine level in tumor at 2 mg/kg/day, ip administered five times per week for 4 weeks by LC-MS analysis; format: functional
[27] = tested on: MIA PaCa-2; assay: Antitumor activity against human MIA PaCa-2 cells xenografted in athymic BALB/c-nu mouse assessed as fold change in valine level in tumor at 2 mg/kg/day, ip administered five times per week for 4 weeks by LC-MS analysis; format: functional
[28] = tested on: MIA PaCa-2; assay: Antitumor activity against human MIA PaCa-2 cells xenografted in athymic BALB/c-nu mouse assessed as fold change in nicotinamide level in tumor at 2 mg/kg/day, ip administered five times per week for 4 weeks by LC-MS analysis; format: functional
[29] = tested on: MIA PaCa-2; assay: Antitumor activity against human MIA PaCa-2 cells xenografted in athymic BALB/c-nu mouse assessed as fold change in uracil level in tumor at 2 mg/kg/day, ip administered five times per week for 4 weeks by LC-MS analysis; format: functional

## COc1cc(O)c(C(=O)[C@@H]2CC=C(CCC=C(C)C)C[C@H]2c2ccccc2)c(O)c1
[1]
  PC50: 3.4 µM
[2]
  fold change (FC): 0.43
[3]
  Activity: Active
[4]
  inhibition: Dose-Dependent Effect
[5]
  inhibition: Dose-Dependent Effect
[6]
  Activity: 36%
[7]
  inhibition at 10 µM: 88%
[8]
  inhibition in vivo at 2 mg/kg/day: 51%
[9]
  inhibition in vivo at 10 mg/kg/day: 68%
[10]
  Activity: Active
[11]
  fold change (FC): 3.68
[12]
  fold change (FC): 0.28
[13]
  fold change (FC): 0.31
[14]
  fold change (FC): 0.25
[15]
  Activity: Active
[16]
  inhibition: inactive
[17]
  inhibition: inactive
[18]
  fold change (FC): 0.44
[19]
  fold change (FC): 0.48
[20]
  fold change (FC): 0.62
[21]
  fold change (FC): 0.43
[22]
  fold change (FC): 1.03
[23]
  fold change (FC): 0.41
[24]
  fold change (FC): 0.43
[25]
  fold change (FC): 0.49
[26]
  fold change (FC): 0.41
[27]
  fold change (FC): 0.44
[28]
  fold change (FC): 0.52
[29]
  fold change (FC): 0.29

From ChEMBL document CHEMBL5321213, “Nicolaioidesin C: An Antiausterity Agent Shows Promising Antitumor Activity in a Pancreatic Cancer Xenograft Mouse Model” (J Nat Prod, 2023)
